Laboratory results reported in ChEMBL document CHEMBL1150904, “Cytotoxic isoflavans from Eysenhardtia polystachya” (1998).
In brackets after ≈: the same amount, converted by molar mass.

Assays:
KB = test: Cytotoxicity against human KB cells after 72 hrs; assay type: functional; settings: read-out: ED50 (the source's name)
Spodoptera frugiperda = test: Insecticidal activity against Spodoptera frugiperda; assay type: functional

| SMILES | EC50 (KB) [µg/mL] | LC50 (Spodoptera frugiperda) [ng/cm2] |
| --- | --- | --- |
| COc1cc(OC)c(-c2coc3cc(O)ccc3c2=O)cc1OC | > 4 | – |
| COc1cc([C@H]2COc3c(ccc(O)c3OC)C2)c(OC)c(OC)c1OC | 3.8 (≈ 10.1 µM) | >1000 |
| COc1cc([C@H]2COc3c(ccc(O)c3OC)C2)c(OC)c(O)c1OC | 3 (≈ 8.28 µM) | >1000 |
| COc1ccc2c(c1OC)OC[C@H]1c3cc4c(cc3O[C@@H]21)OCO4 | > 4 | – |
| COc1cc2c(cc1-c1coc3cc(O)ccc3c1=O)OCO2 [CUNEATIN] | > 4 | – |
| COc1ccc(C2COc3c(ccc(O)c3OC)C2)c(O)c1OC (stereo not given) [ISODUARTIN] | 2.63 (≈ 7.91 µM) | >1000 |
| CC[C@H](/C=C/[C@@H](C)[C@H]1CC[C@H]2[C@@H]3CC=C4C[C@@H](O)CC[C@]4(C)[C@H]3CC[C@]12C)C(C)C [STIGMASTEROL] | > 4 | – |
